Measurements: patent publication US9271978B2 (Zenith Epigenetics Corp., priority 2012, dated 2016)

How the values were obtained:
[1] = target: T1, Brd4 bromodomain 1 (BRD4(1)) (Homo sapiens, UniProt O60885); assay: Inhibition of tetra-acetylated histone H4 binding to Brd4 bromodomain 1 (TR-FRET); design: key: Active: Compounds with an IC50 value less than 30 μM were deemed to be active.; Not Active: Compounds with an IC50 value less than 30 μM were deemed to be active; details: tetra-acetylated histone H4 peptide, active = IC50 <30 μM
T1 construct: Illustrative results with the first bromodomain of Brd4; made in house; host or cells: E. coli BL21 (DE3)
Description: (§1) Proteins were cloned and overexpressed with a N-terminal 6×His tag, then purified by nickel affinity followed by size exclusion chromatography. Briefly, E. coli BL21 (DE3) cells were transformed with a recombinant expression vector encoding N-terminally Nickel affinity tagged bromodomains from Brd2, Brd3, Brd4. Cell cultures were incubated at 37° C. with shaking to the appropriate density and induced overnight with IPTG. The supernatant of lysed cells was loaded onto Ni-IDA column for purification. Eluted protein is pooled, concentrated and further purified by size exclusion chromatography. Fractions representing monomeric protein were pooled, concentrated, aliquoted, and frozen at −80° C. for use in subsequent experiments.
(§2) Binding of tetra-acetylated histone H4 and BET bromodomains was confirmed by a Time Resolved Fluorescence Resonance Energy Transfer (TR-FRET) method. N-terminally His-tagged bromodomains (200 nM) and biotinylated tetra-acetylated histone H4 peptide (25-50 nM, Millipore) were incubated in the presence of Europium Cryptate-labeled streptavidin (Cisbio Cat. #610SAKLB) and XL665-labeled monoclonal anti-His antibody (Cisbio Cat. #61HISXLB) in a white 96 well microtiter plate (Greiner). For inhibition assays, serially diluted test compound was added to these reactions in a 0.2% final concentration of DMSO. Final buffer concentrations were 30 mM HEPES pH 7.4, 30 mM NaCl, 0.3 mM CHAPS, 20 mM phosphate pH 7.0, 320 mM KF, 0.08% BSA). After a 2-h incubation at room temperature, the fluorescence by FRET was measured at 665 and 620 nm by a SynergyH4 plate reader (Biotek). Illustrative results with the first bromodomain of Brd4 and the second bromodomain of Brd2 are shown below. The binding inhibitory activity was shown by a decrease in 665 nm fluorescence relative to 620 nm. IC50 values were determined from a dose response curve.

[2] = target: T2, second bromodomain of Brd2 (BRD2(2)) (Homo sapiens, UniProt P25440); assay: Inhibition of tetra-acetylated histone H4 binding to Brd2 bromodomain 2 (TR-FRET); design: key: Active: Compounds with an IC50 value less than 30 μM were deemed to be active.; Not Active: Compounds with an IC50 value less than 30 μM were deemed to be active; details: tetra-acetylated histone H4 peptide, active = IC50 <30 μM
T2 construct: made in house; host or cells: E. coli BL21 (DE3)
Description: as §1, §2

T2 sequence (P25440 344-453 limits assumed): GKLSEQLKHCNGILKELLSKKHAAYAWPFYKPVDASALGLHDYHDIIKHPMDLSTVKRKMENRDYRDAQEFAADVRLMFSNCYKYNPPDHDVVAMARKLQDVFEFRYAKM

FRET activity (IC50 <30 μM) BRD4(1) [1]	FRET activity (IC50 <30 μM) BRD2(2) [2]	Structure (SMILES)
Active	Active	Cc1noc(C)c1-c1ccc(=O)n(CC2CC2)n1 [Example 45, 2-(Cyclopropylmethyl)-6-(3,5-dimethylisoxazol-4-yl)pyridazin-3(2H)-one]
Active	Active	Cc1noc(C)c1-c1ccc(=O)n(CC2CCOCC2)n1 [Example 37, 6-(3,5-Dimethylisoxazol-4-yl)-2-((tetrahydro-2H-pyran-4-yl)methyl)pyridazin-3(2H)-one]
Not Active	Active	Cc1noc(C)c1-c1nn(Cc2ccccc2)c(=O)c2ccccc12 [Example 170, 2-Benzyl-4-(3,5-dimethylisoxazol-4-yl)-2H-phthalazin-1-one]
Active	Active	Cc1noc(C)c1-c1ccc(=O)n(Cc2ccc3ccccc3c2)n1 [Example 77, 6-(3,5-Dimethylisoxazol-4-yl)-2-(naphthalen-2-ylmethyl)pyridazin-3(2H)-one]
Not Active	Active	Cc1[nH]cnc1-c1ccc(=O)n(Cc2ccccc2)c1 [Example 81, 1-Benzyl-5-(5-methyl-1H-imidazol-4-yl)pyridin-2(1H)-one]
Active	Active	Cc1noc(C)c1-c1ccc(=O)n(C(=O)c2ccc(F)cc2)c1 [Example 68, 5-(3,5-Dimethylisoxazol-4-yl)-1-(4-fluorobenzoyl)pyridin-2(1H)-one]
Active	Not Active	Cc1noc(C)c1-c1ccc(=O)n(Cc2cnoc2)n1 [Example 97, 6-(3,5-Dimethylisoxazol-4-yl)-2-(isoxazol-4-ylmethyl)pyridazin-3(2H)-one]
Active	Active	COc1ccc(Cn2nc(-c3c(C)noc3C)ccc2=O)cc1 [Example 33, 6-(3,5-Dimethylisoxazol-4-yl)-2-(4-methoxybenzyl)pyridazin-3(2H)-one]
Active	Active	Cc1ccc(Cn2cc(-c3c(C)noc3C)ccc2=O)cc1 [Example 41, 5-(3,5-Dimethylisoxazol-4-yl)-1-(4-methylbenzyl)pyridin-2(1H)-one]
Not Active	Active	O=c1ccc(-c2cnoc2)cn1Cc1ccccc1 [Example 58, 1-Benzyl-5-(isoxazol-4-yl)pyridin-2(1H)-one]
Active	Active	COc1ccc(-c2nn(Cc3ccccc3)c(=O)c3ccccc23)c(OC)c1OC [Example 177, 2-Benzyl-4-(2,3,4-trimethoxyphenyl)phthalazin-1(2H)-one]
Not Active	Active	O=c1ccc(-c2cnsc2)cn1Cc1ccccc1 [Example 59, 1-Benzyl-5-(isothiazol-4-yl)pyridin-2(1H)-one]
Active	Active	Cc1noc(C)c1-c1ccc(=O)n(Cc2ccc3nccnc3c2)c1 [Example 18, 5-(3,5-Dimethylisoxazol-4-yl)-1-(quinoxalin-6-ylmethyl)pyridin-2(1H)-one]
Active	Active	Cc1noc(C)c1-c1ccc(=O)n(Cc2ncccn2)c1 [Example 163, 5-(3,5-Dimethylisoxazol-4-yl)-1-(pyrimidin-2-ylmethyl)pyridin-2(1H)-one]
Not Active	Active	Cc1cc(F)cc(Cn2nc(-c3c(C)noc3C)ccc2=O)c1 [Example 32, 6-(3,5-Dimethylisoxazol-4-yl)-2-(3-fluoro-5-methylbenzyl)pyridazin-3(2H)-one]
Active	Not Active	Cc1noc(C)c1-c1ccc(=O)n(S(=O)(=O)c2ccc(Cl)cc2)c1 [Example 150, 1-((4-Chlorophenyl)sulfonyl)-5-(3,5-dimethylisoxazol-4-yl)pyridin-2(1H)-one]
Active	Active	Cc1noc(C)c1-c1ccc(=O)n(Cc2ccc3[nH]cnc3c2)n1 [Example 143, 2-((1H-Benzo[d]imidazol-5-yl)methyl)-6-(3,5-dimethylisoxazol-4-yl)pyridazin-3(2H)-one]
Active	Active	Cc1noc(C)c1-c1ccc(=O)n([C@@H](C)c2ccc(F)cc2)c1 (single isomer, unassigned) [Example 110]
Not Active	Active	Cc1noc(C)c1-c1ccc(=O)n(Cc2ncccn2)n1 [Example 3, 6-(3,5-Dimethylisoxazol-4-yl)-2-(pyrimidin-2-ylmethyl)pyridazin-3(2H)-one]
Active	Active	Cc1noc(C)c1-c1ccc(=O)n(Cc2ccccc2)c1Cl [Example 114, 1-Benzyl-6-chloro-5-(3,5-dimethylisoxazol-4-yl)pyridin-2(1H)-one]
Active	Active	Cc1noc(C)c1-c1cnc(=O)n(Cc2ccccc2)c1 [Example 8, 1-Benzyl-5-(3,5-dimethylisoxazol-4-yl)pyrimidin-2(1H)-one]
Active	Active	Cc1noc(C)c1-c1ccc(=O)n(Cc2ccc(F)cc2Cl)c1 [Example 140, 1-(2-Chloro-4-fluorobenzyl)-5-(3,5-dimethylisoxazol-4-yl)pyridin-2(1H)-one]
Active	Active	Cc1cc(=O)n(Cc2ccccc2)cc1-c1c(C)noc1C [Example 12, 1-Benzyl-5-(3,5-dimethylisoxazol-4-yl)-4-methylpyridin-2(1H)-one]
Active	Active	Cc1noc(C)c1-c1ccc(=O)n(Cc2ccccc2OC(F)(F)F)c1 [Example 40, 5-(3,5-Dimethylisoxazol-4-yl)-1-(2-(trifluoromethoxy)benzyl)pyridin-2(1H)-one]
Active	Active	Cc1noc(C)c1-c1cc(C2CC2)c(=O)n(Cc2ccccc2)c1 [Example 67, 1-Benzyl-3-cyclopropyl-5-(3,5-dimethylisoxazol-4-yl)pyridin-2(1H)-one]
Active	Active	Cc1noc(C)c1-c1cc(C)c(=O)n(CC2CC2)n1 [Example 85, 2-(Cyclopropylmethyl)-6-(3,5-dimethylisoxazol-4-yl)-4-methylpyridazin-3(2H)-one]
Active	Active	Cc1noc(C)c1-c1ccc(=O)n(CC2CCC2)n1 [Example 88, 2-(Cyclobutylmethyl)-6-(3,5-dimethylisoxazol-4-yl)pyridazin-3(2H)-one]
